In one data set the test system is HepG2 cells. As to the kind of experiment: In vitro cytotoxicity, MTT assay. The format is cell-based. The settings on record: for Status: HepG2, MTT, 0–1000 µg/mL, 24 h. The protocol:
(§1) HepG2 cell line was obtained from the cell culture laboratory established in The University of Lahore. These cell lines were preserved in cryo vials present in liquid nitrogen. Cryo vials were revived for further processing.
(§2) The cryo vials obtained from liquid nitrogen cylinder were thawed. Then HepG2 cells were cultured in the culturing flask in which DMEM-HG along with 10% fetal bovine serum (FBS), supplemented with […] (Sigma) and 100 U/mL streptomycin (Sigma) were added. Cultures were maintained in a humidified incubator supplied with 5% CO2 at 37 °C. Experiments were performed in triplicates. When cultured HepG2 cells achieved 70–80% confluence their subculturing was conducted. For splitting, the cells attached to the walls of the culturing flask were washed with 1× phosphate buffer saline (PBS) and incubated with 0.05% trypsin-EDTA until cells detached from the surface of culturing flask. The detachment of the cells was confirmed by observing the flask under the inverted microscope. A few drops of FBS were added to the flask and mixed well by stirring. The mixture was centrifuged at 2000 rpm for 5 min. After centrifugation the supernatant was removed, and pellet was resuspended. HepG2 cells were cultured onto 96-well plates for measurement of cell viability. Treatment was given for both compounds at a concentration of 0–1000 µg/mL for 24 h.
(§3) After 4 h formazan crystals were solubilized with 10% sodium dodecylsulphate (SDS) (Invitrogen Inc.) and absorbance was taken at 570 nm. Percentage viability was calculated according to the following formula:% Viable cells = ((abs sample − abs blank) / (abs control − abs blank)) × 100 (1) where abs stands for absorbance.
In general terms: Tetrazolium assays rely on reduction of a dye to a coloured formazan, in cell work by metabolically active cells.

Data set [1] can be described thus: In vitro cytotoxicity, MTT assay. The format is cell-based. The settings on record: human, HepG2 cells, 24 h, control = 100, read-out: Cell Viability; for viability at 24 h, 50 μg/mL: HepG2, 50 μg/mL; for viability at 24 h, 100 μg/mL: HepG2, 100 μg/mL; for viability at 24 h, 200 μg/mL: HepG2, 200 μg/mL; for viability at 24 h, 500 μg/mL: HepG2, 500 μg/mL; for viability at 24 h, 1000 μg/mL: HepG2, 1000 μg/mL. The protocol: as §1, §2, §3

Data set [2] addresses Acetylcholinesterase (AChE) (Electrophorus electricus, UniProt O42275). As to the kind of experiment: biochemical. The settings on record: Ellman's method, triplicate; read-out: Acetylcholinesterase (AChE) IC50 ± SEM. The protocol:
(§4) Modified Ellman’s method was adopted to investigate the inhibitory potential of newly synthesized compounds against cholinesterase enzymes. The assay protocol involved 96-well plates (100 μL per well). Each well contained 20 μL of assay buffer solution, 10 μL of test sample, and 10 μL of 0.5 U/mg of AChE (for AChE inhibition assay) or 10 μL of 3.4 U/mg of BChE (for BChE inhibition assay). This mixture was incubated at 25 °C for 10 min followed by the addition of substrate (10 μL). For AChE inhibition assay, acetylthiocholine iodide (ATCI, 1 mM) while for BChE assay, butyrylthiocholine chloride (BTCCl, 1 mM), was added. This mixture was incubated for 15 min at 37 °C. Ellman reagent (5,5′-dithio-bis(2-nitrobenzoic acid), DTNB, 3 mM) was added. […] Blank assay was also performed. All the analyses were performed in triplicate. IC50 values were also calculated for the synthesized compounds in GraphPad prism 5.0. using nonlinear regression method.
On the technique in general: In Ellman's method for cholinesterases, released thiocholine reacts with DTNB.

The target of data set [3] is Butyrylcholinesterase (BChE) (Equus caballus, UniProt P81908). Nature of the data set: biochemical. To be noted: Ellman's method, triplicate; read-out: Butyrylcholinesterse (BChE) IC50 ± SEM. The protocol: as §4

Each structure is given as a SMILES string.

Sequence of Acetylcholinesterase (AChE) (O42275 24-633): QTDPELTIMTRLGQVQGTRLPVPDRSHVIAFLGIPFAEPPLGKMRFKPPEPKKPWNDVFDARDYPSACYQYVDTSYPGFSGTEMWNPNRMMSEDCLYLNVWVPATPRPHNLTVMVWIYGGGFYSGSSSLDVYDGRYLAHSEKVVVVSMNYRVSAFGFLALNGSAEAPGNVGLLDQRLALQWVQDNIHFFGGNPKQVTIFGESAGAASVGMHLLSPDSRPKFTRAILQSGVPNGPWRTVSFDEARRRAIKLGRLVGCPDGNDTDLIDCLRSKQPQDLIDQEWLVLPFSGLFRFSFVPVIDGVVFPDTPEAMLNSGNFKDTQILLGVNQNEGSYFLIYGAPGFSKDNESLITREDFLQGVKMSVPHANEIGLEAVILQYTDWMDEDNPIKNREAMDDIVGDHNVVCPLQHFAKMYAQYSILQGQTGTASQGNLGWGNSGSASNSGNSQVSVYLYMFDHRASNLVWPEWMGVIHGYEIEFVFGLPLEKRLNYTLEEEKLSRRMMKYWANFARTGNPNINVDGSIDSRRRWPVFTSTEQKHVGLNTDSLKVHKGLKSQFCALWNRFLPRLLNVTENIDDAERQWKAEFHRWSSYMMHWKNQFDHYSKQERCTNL
Sequence of Butyrylcholinesterase (BChE) (P81908 whole entry): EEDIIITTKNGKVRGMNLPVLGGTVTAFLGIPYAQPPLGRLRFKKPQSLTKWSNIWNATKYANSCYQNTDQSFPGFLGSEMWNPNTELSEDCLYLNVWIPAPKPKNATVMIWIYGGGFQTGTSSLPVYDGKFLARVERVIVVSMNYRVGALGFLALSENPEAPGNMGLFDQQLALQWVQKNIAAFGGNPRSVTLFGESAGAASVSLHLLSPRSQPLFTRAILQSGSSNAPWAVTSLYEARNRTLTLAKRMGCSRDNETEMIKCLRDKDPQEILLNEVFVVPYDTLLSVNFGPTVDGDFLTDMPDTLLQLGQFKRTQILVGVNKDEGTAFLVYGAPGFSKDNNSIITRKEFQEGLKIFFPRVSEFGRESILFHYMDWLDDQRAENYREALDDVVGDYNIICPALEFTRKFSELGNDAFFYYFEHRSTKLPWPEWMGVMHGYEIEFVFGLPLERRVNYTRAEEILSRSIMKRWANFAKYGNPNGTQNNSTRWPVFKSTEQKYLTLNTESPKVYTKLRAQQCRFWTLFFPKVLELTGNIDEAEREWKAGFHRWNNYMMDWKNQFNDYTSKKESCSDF

As usually defined, the viability is a read-out of living cells in per cent, often relative to untreated cells. One may read the IC50 as the concentration needed to halve the response being measured. On to `Cc1ccc2nc(N3CCCCC3)c(C=NNC(N)=S)cc2c1` [Compound 5a, 2-((6-Methyl-2-(piperidin-1-yl)quinolin-3-yl)methylene)hydrazinecarbothioamide], for which the Status result with HepG2 cells is on record as “Non-cytotoxic”. Moreover, in data set [1], the viability at 24 h, 50 μg/mL came to 95.4%; the viability at 24 h, 100 μg/mL turned out to be 88.9%; the viability at 24 h, 200 μg/mL worked out at 92.8%; the viability at 24 h, 500 μg/mL worked out at 95.8%. In addition, in data set [1], the viability at 24 h, 1000 μg/mL was determined as 102%. Besides, the IC50 in data set [2] turned out to be 27.6 ± 0.08 µM. In addition, the IC50 in data set [3] is 35.3 ± 0.01 µM.
As for `Cc1ccc2nc(N3CCCCC3)c(C=NNC(=S)Nc3ccccc3)cc2c1` [Compound 5b, 2-((6-Methyl-2-(piperidin-1-yl)quinolin-3-yl)methylene)-N-phenylhydrazinecarbothioamide], the Status entry in the data set with HepG2 cells was “Proliferative”. In addition, in data set [1], the viability at 24 h, 50 μg/mL was found to be 106%; the viability at 24 h, 100 μg/mL is 107%; the viability at 24 h, 200 μg/mL is 139%; the viability at 24 h, 500 μg/mL was 169%. Moreover, the viability at 24 h, 1000 μg/mL in data set [1] was 227%. Also, the IC50 in data set [2] is 25.1 ± 0.25 µM. Moreover, the IC50 in data set [3] was determined as 33.1 ± 0.09 µM.
With `Cc1ccc(NC(=S)NN=Cc2cc3cc(C)ccc3nc2N2CCCCC2)c(C)c1` [Compound 5c, N-(2,4-Dimethylphenyl)-2-((6-methyl-2-(piperidin-1-yl)quinolin-3-yl)methylene)hydrazine carbothioamide], the Status entry in the data set on HepG2 cells is reported as “Proliferative”. Besides, in data set [1], the viability at 24 h, 50 μg/mL turned out to be 105%; the viability at 24 h, 100 μg/mL amounted to 109%; the viability at 24 h, 200 μg/mL amounted to 122%; the viability at 24 h, 500 μg/mL worked out at 188%. The viability at 24 h, 1000 μg/mL in data set [1] was found to be 262%. The IC50 in data set [2] was found to be 42.3 ± 0.99 µM. The IC50 in data set [3] worked out at 37.2 ± 0.83 µM.
As to `Cc1ccc2nc(N3CCCCC3)c(C=NNC(=S)Nc3c(C)cccc3C)cc2c1` [Compound 5d, N-(2,6-Dimethylphenyl)-2-((6-methyl-2-(piperidin-1-yl)quinolin-3-yl)methylene)hydrazine carbothioamide], in the data set on HepG2 cells, the Status result was “Proliferative”. Moreover, in data set [1], the viability at 24 h, 50 μg/mL worked out at 105%; the viability at 24 h, 100 μg/mL stood at 108%; the viability at 24 h, 200 μg/mL was 110%; the viability at 24 h, 500 μg/mL was 134%. Further, the viability at 24 h, 1000 μg/mL in data set [1] turned out to be 131%. For the same compound, the IC50 in data set [2] was found to be 25.9 ± 0.96 µM. The IC50 in data set [3] amounted to 29.8 ± 1.2 µM.
As for `Cc1ccc2nc(N3CCCCC3)c(C=NNC(=S)Nc3ccccc3Cl)cc2c1` [Compound 5e, N-(2-Chlorophenyl)-2-((6-methyl-2-(piperidin-1-yl)quinolin-3-yl)methylene)hydrazine carbothioamide], the Status result with HepG2 cells is recorded as “Cytotoxic”. In data set [1], the viability at 24 h, 50 μg/mL was found to be 94.2%; the viability at 24 h, 100 μg/mL is 97.2%; the viability at 24 h, 200 μg/mL is 158%; the viability at 24 h, 500 μg/mL turned out to be 196%. The viability at 24 h, 1000 μg/mL in data set [1] came to 76.3%. Besides, the IC50 in data set [2] turned out to be 35.2 ± 0.54 µM. In addition, the IC50 in data set [3] was found to be 40.26 ± 0.17 µM.
For the compound `Cc1ccc2nc(N3CCCCC3)c(C=NNC(=S)Nc3cccc(Cl)c3)cc2c1` [Compound 5f, N-(3-Chlorophenyl)-2-((6-methyl-2-(piperidin-1-yl)quinolin-3-yl)methylene)hydrazine carbothioamide], the Status result with HepG2 cells is given as “Cytotoxic”. For the same compound, in data set [1], the viability at 24 h, 50 μg/mL stood at 84.8%; the viability at 24 h, 100 μg/mL was found to be 94.9%; the viability at 24 h, 200 μg/mL was determined as 93.9%; the viability at 24 h, 500 μg/mL was found to be 93.2%. For the same compound, the viability at 24 h, 1000 μg/mL in data set [1] is 56.9%. Also, the IC50 in data set [2] turned out to be 23.9 ± 0.25 µM. Besides, the half-inhibitory concentration (IC50) in data set [3] was 24.6 ± 0.57 µM.
As for `Cc1ccc2nc(N3CCCCC3)c(C=NNC(=S)Nc3ccc(Cl)cc3)cc2c1` [Compound 5g, N-(4-Chlorophenyl)-2-((6-methyl-2-(piperidin-1-yl)quinolin-3-yl)methylene)hydrazine carbothioamide], the Status result in the data set with HepG2 cells is recorded as “Proliferative”. Moreover, in data set [1], the viability at 24 h, 50 μg/mL was found to be 84.3%; the viability at 24 h, 100 μg/mL came to 96.4%; the viability at 24 h, 200 μg/mL is 94.1%; the viability at 24 h, 500 μg/mL is 122%. The viability at 24 h, 1000 μg/mL in data set [1] came to 135%. Further, in data set [2], the IC50 is 19.85 ± 0.14 µM. For the same compound, in data set [3], the IC50 amounted to 23.1 ± 0.11 µM.
Turning to `Cc1ccc2nc(N3CCCCC3)c(C=NNC(=S)Nc3ccccc3F)cc2c1` [Compound 5h, N-(2-Fluorophenyl)-2-((6-methyl-2-(piperidin-1-yl)quinolin-3-yl)methylene)hydrazine carbothioamide], the Status result in the data set on HepG2 cells is recorded as “Proliferative”. In addition, in data set [1], the viability at 24 h, 50 μg/mL was determined as 113%; the viability at 24 h, 100 μg/mL stood at 121%; the viability at 24 h, 200 μg/mL is 83.8%; the viability at 24 h, 500 μg/mL is 151%. In data set [1], the viability at 24 h, 1000 μg/mL stood at 209%. For the same compound, the IC50 in data set [2] was determined as 31.3 ± 0.37 µM. Further, the IC50 in data set [3] is 25.1 ± 0.99 µM.
As for `Cc1ccc2nc(N3CCCCC3)c(C=NNC(=S)Nc3cccc(F)c3)cc2c1` [Compound 5i, N-(3-Fluorophenyl)-2-((6-methyl-2-(piperidin-1-yl)quinolin-3-yl)methylene)hydrazine carbothioamide], the Status result with HepG2 cells is reported as “Proliferative”. Also, in data set [1], the viability at 24 h, 50 μg/mL amounted to 118%; the viability at 24 h, 100 μg/mL came out at 99.4%; the viability at 24 h, 200 μg/mL was 97.2%; the viability at 24 h, 500 μg/mL was 99.4%. Besides, in data set [1], the viability at 24 h, 1000 μg/mL came out at 149%. In addition, the IC50 in data set [2] stood at 24.1 ± 0.43 µM. Also, in data set [3], the IC50 was determined as 36.23 ± 0.02 µM.
As to `Cc1ccc2nc(N3CCCCC3)c(C=NNC(=S)Nc3ccc(F)cc3)cc2c1` [Compound 5j, N-(4-Fluorophenyl)-2-((6-methyl-2-(piperidin-1-yl)quinolin-3-yl)methylene)hydrazine carbothioamide], the Status result with HepG2 cells is given as “Proliferative”. For the same compound, in data set [1], the viability at 24 h, 50 μg/mL is 93.4%; the viability at 24 h, 100 μg/mL worked out at 98.1%; the viability at 24 h, 200 μg/mL is 107%; the viability at 24 h, 500 μg/mL amounted to 138%. Moreover, the viability at 24 h, 1000 μg/mL in data set [1] came out at 166%. Also, the IC50 in data set [2] is 28.2 ± 0.94 µM. In data set [3], the IC50 was 42.4 ± 0.44 µM.
Turning to `CCc1ccc(NC(=S)NN=Cc2cc3cc(C)ccc3nc2N2CCCCC2)cc1` [Compound 5k, N-(4-Ethylphenyl)-2-((6-methyl-2-(piperidin-1-yl)quinolin-3-yl)methylene)hydrazine carbothioamide], in the data set with HepG2 cells, the Status entry is on record as “Proliferative”. Moreover, in data set [1], the viability at 24 h, 50 μg/mL turned out to be 111%; the viability at 24 h, 100 μg/mL stood at 110%; the viability at 24 h, 200 μg/mL worked out at 99.6%; the viability at 24 h, 500 μg/mL came to 106%. Besides, the viability at 24 h, 1000 μg/mL in data set [1] was determined as 132%. The IC50 in data set [2] was found to be 30.6 ± 0.56 µM. In addition, the IC50 in data set [3] was found to be 32 ± 0.87 µM.
Consider `Cc1ccc2nc(N3CCCCC3)c(C=NNC(=S)NCc3ccccc3)cc2c1` [Compound 5l, N-Benzyl-2-((6-methyl-2-(piperidin-1-yl)quinolin-3-yl)methylene)hydrazinecarbothioamide], for which the Status result in the data set with HepG2 cells was “Proliferative”. Besides, in data set [1], the viability at 24 h, 50 μg/mL was found to be 101%; the viability at 24 h, 100 μg/mL was 101%; the viability at 24 h, 200 μg/mL amounted to 107%; the viability at 24 h, 500 μg/mL came out at 109%. Moreover, in data set [1], the viability at 24 h, 1000 μg/mL stood at 133%. The half-maximal inhibitory concentration (IC50) in data set [2] is 35.1 ± 1.2 µM. The IC50 in data set [3] worked out at 45.02 ± 0.38 µM.
Consider `N.N.[Cl][Pt][Cl]` [cisplatin, reference compound], for which the IC50 in the data set with HepG2 cells (HepG2, standard drug) was 20 µg/mL.
